According to PMC8047873, “An antibiotic-resistance conferring mutation in a neisserial porin: Structure, ion flux, and ampicillin binding” (Biochimica et Biophysica Acta. Biomembranes, 2021):

Target: T1, PorB (wt PorB) (Neisseria meningitidis, UniProt M4GGR4)
T1 construct: outer membrane porin, homotrimer, purified in LDAO and inserted in planar lipid bilayers or liposomes; about 340 residues; expression as described previously
Test: single-channel electrophysiology, planar black lipid membrane, JULES idealization
Type: binding
Settings: +80 mV, 1 M KCl, 10 mM HEPES, pH 7.5; DPhPC/cholesterol 9:1; pore block

T1 sequence (M4GGR4 entry or part of it): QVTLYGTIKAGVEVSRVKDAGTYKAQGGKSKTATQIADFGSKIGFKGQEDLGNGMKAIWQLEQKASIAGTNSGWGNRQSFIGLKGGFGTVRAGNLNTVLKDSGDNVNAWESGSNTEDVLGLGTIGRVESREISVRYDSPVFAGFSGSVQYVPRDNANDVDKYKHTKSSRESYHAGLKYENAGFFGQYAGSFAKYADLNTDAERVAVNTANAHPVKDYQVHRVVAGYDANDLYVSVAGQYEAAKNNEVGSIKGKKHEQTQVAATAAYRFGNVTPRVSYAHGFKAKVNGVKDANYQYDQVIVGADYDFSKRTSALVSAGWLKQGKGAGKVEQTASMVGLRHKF

CC1(C)S[C@@H]2[C@H](NC(=O)[C@H](N)c3ccccc3)C(=O)N2[C@H]1C(=O)O [ampicillin]
residence time τR: 35 ± 1 μs
